In paper PMC10914731, “Homo-BacPROTAC-induced degradation of ClpC1 as a strategy against drug-resistant mycobacteria” (Nature Communications, 2024):
≈ marks a conversion by molar mass, not a printed value. Where “and” joins values, the source holds several entries; their conditions need not be identical. Equal values may be shown once. Read-outs that look alike come from different tables or passages of the source. *1 amine or outer side, *2 acyl side, *3 side chain or, on linkers, in order; H or OH if unused. Where a SMILES comes first, the peptide text is derived from it. [ ]: non-standard residue; d: D form. X1 = C#CCn1cc(C[C@H](N[*:1])C(=O)[*:2])c2ccccc21; NMeLeu(5-OH,4R) = CN[C@@H](C[C@@H](C)CO)C(=O)O; Phe(βR-OMe) = CO[C@H](c1ccccc1)[C@H](N)C(=O)O; NMeL = CN[C@@H](CC(C)C)C(=O)O

Key:
[1] = test system: M. tuberculosis H37Rv (ATCC 27294); test: microbe, parasite or virus in culture; assay type: cell-based
Msm 607 = test: microbe, parasite or virus in culture; assay type: cell-based
Mtb # 11291 = test: microbe, parasite or virus in culture; assay type: cell-based; conditions: single well replicates
Klebsiella pneumoniae = test: MIC ESKAPES panel, Klebsiella pneumoniae; assay type: cell-based
Procedure, shortened: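 CLSI broth microdilution was run in Mueller Hinton broth with an inoculum of 3–7 × 10^5 cfu/ml at 37 °C. Turbidity was read on day 2; clear wells indicated growth inhibition.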

[2] = test system: non-replicating cells of Mtb H37Rv; assay type: cell-based, Mycobacterium tuberculosis; conditions: three replicate columns
in vivo = assay type: in vivo, BALB/cAnNCrl mice
Procedure, shortened: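 Male BALB/c mice (9 weeks, n = 3 per route) received a bolus of 1 mg/kg iv or 30 mg/kg po; blood was sampled from 0.1 (iv) or 0.25 (po) h to 24 h. Plasma was protein-precipitated with ACN and quantified by UPLC-MS/MS. LogD given as chromLogD7.5, from C18 retention calibrated against n-alkan-2-ones.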

[3] = iv bolus, individual animals 1-3
[4] = male, BALB/cAnNCrl, mouse, in vivo, iv, 1.062 umol/kg, iv bolus, individual animals 1-3
[5] = male, BALB/cAnNCrl, mouse, in vivo, iv, 1.062 umol/kg, iv bolus, mice, Mean

With C#CCn1cc(C[C@@H]2NC(=O)[C@H](C(C)C)NC(=O)[C@H](CC(C)C)N(C)C(=O)[C@H](C(C)C)NC(=O)[C@H]([C@H](OC)c3ccccc3)NC(=O)[C@H](C)NC(=O)[C@H](C[C@@H](C)CO)N(C)C2=O)c2ccccc21 [Compound 5] (cyclo(A[Phe(βR-OMe)]V[NMeL]V[X1][NMeLeu(5-OH,4R)])) the MIC ([1]; M. tuberculosis H37Rv 27294, single well replicates, read-out: MIC) was 3.125 µM (2×) and 1.56 µM, the MIC ([1]; Mycobacterium tuberculosis, M. tuberculosis H37Rv strain, read-out: MIC Mtb H37Rv Mean ± SD) was 1.6 µM (≈ 1.51 µg/mL) and the MIC ([1]; Mycobacterium tuberculosis, Mtb H37Rv (Supplementary Table 2), read-out: MIC Mtb) was 1.6 µM (≈ 1.51 µg/mL). For the same compound, the MIC ([1]; Mycobacterium tuberculosis, Mtb H37Rv, mean ± SD, n = 3 well replicates, read-out: MIC) was 2.6 ± 0.9 µM (≈ 2.45 µg/mL), the MIC ([1]; Mycobacterium tuberculosis, Set 1, read-out: MIC (Mtb H37Rv) Set 1) was 1.56 µM and 1.47 µg/mL and the MIC ([1]; Mycobacterium tuberculosis, Set 2, read-out: MIC (Mtb H37Rv) Set 2) was 1.56 µM and 1.47 µg/mL. For the same compound, the MIC ([1]; Mycobacterium tuberculosis, Set 3, done at a different day than Set 1 and Set 2, read-out: MIC (Mtb H37Rv) Set 3) was 1.56 µM and 1.47 µg/mL, the MIC ([1]; Mycobacterium tuberculosis, individual example (Supplementary Table 11), read-out: MIC Mtb H37Rv) was 1.6 µM and 1.5 µg/mL and the MIC ([1]; Mycobacterium tuberculosis, individual measurements (source data), read-out: Mtb MIC) was 1.56 µM (≈ 1.47 µg/mL). For the same compound, the MIC ([1]; Mycobacterium tuberculosis, mean of 3 experiments +/- SD, unit taken from the sets above in the same table, read-out: MIC data (Mtb H37Rv) (+/- SD)) was 1.56 µM and 1.47 µg/mL, the MIC ([1]; Mycobacterium tuberculosis, single determinations, read-out: Mtb MIC) was 1.56 µM (≈ 1.47 µg/mL) and the MIC (Msm 607; Mycolicibacterium smegmatis, 607, read-out: MIC Msm 607) was 25 µM (≈ 23.5 µg/mL). For the same compound, the MIC (Msm 607; Mycolicibacterium smegmatis, 607, read-out: MIC Msm #607, individual example (Supplementary Table 11)) was 25 µM and 23.5 µg/mL, the MIC (Msm 607; Mycolicibacterium smegmatis, 607, read-out: Msm 607 MIC, single determinations) was 25 µM (≈ 23.5 µg/mL) and the MIC (Msm 607; Mycolicibacterium smegmatis, ATCC607, Set-1, read-out: MIC (Msm ATCC607) Set-1) was 12.5 µM and 11.8 µg/mL. The MIC (Msm 607; Mycolicibacterium smegmatis, ATCC607, Set-2, read-out: MIC (Msm ATCC607) Set-2) was 25 µM and 23.5 µg/mL, the MIC (Msm 607; Mycolicibacterium smegmatis, ATCC607, Set-3, done at a different day than Set 1 and Set 2, read-out: MIC (Msm ATCC607) Set-3) was 12.5 µM and 11.8 µg/mL and the MIC (Msm 607; Mycolicibacterium smegmatis, ATCC607, mean of 3 experiments ± SD, read-out: MIC including standard deviations (Msm ATCC607)) was 16.6 µM and 15.7 µg/mL. For the same compound, the “MIC Mtb # 11291” value (Mtb # 11291) was 0.18 µg/mL (≈ 0.191 µM), the MIC (Mtb # 11291; read-out: MIC Mtb # 11291) was 0.19 µM (≈ 0.179 µg/mL) and the MIC (Klebsiella pneumoniae; Gram-Negative Bacteria, replicates 1-3) was over 50 µM. For the same compound, the MIC (Klebsiella pneumoniae; Klebsiella pneumoniae, Gram negative, n = 3 well replicates) was over 50 µM, the MIC (Klebsiella pneumoniae; Klebsiella pneumoniae, Gram-Negative Bacteria, replicates 1-3) was over 47 µg/mL and the “Supplementary Figure 2 dose-response value, starvation-induced non-replicating H37Rv cells” value ([2]; Conc. 0.0488281 µM) was 103.448 and 95.0508 and 97.0505. The “Supplementary Figure 2 dose-response value, starvation-induced non-replicating H37Rv cells” value ([2]; Conc. 0.0976562 µM) was 90.7405 and 81.0762 and 83.793, the “Supplementary Figure 2 dose-response value, starvation-induced non-replicating H37Rv cells” value ([2]; Conc. 0.195312 µM) was 92.9713 and 85.6175 and 87.7368 and the “Supplementary Figure 2 dose-response value, starvation-induced non-replicating H37Rv cells” value ([2]; Conc. 0.390625 µM) was 86.478 and 81.4188 and 83.0521. The “Supplementary Figure 2 dose-response value, starvation-induced non-replicating H37Rv cells” value ([2]; Conc. 0.78125 µM) was 85.259 and 79.8652 and 81.4825, the “Supplementary Figure 2 dose-response value, starvation-induced non-replicating H37Rv cells” value ([2]; Conc. 1.5625 µM) was 86.0796 and 80.7177 and 79.658 and the “Supplementary Figure 2 dose-response value, starvation-induced non-replicating H37Rv cells” value ([2]; Conc. 3.125 µM) was 84.8208 and 76.8536 and 80.407. The “Supplementary Figure 2 dose-response value, starvation-induced non-replicating H37Rv cells” value ([2]; Conc. 6.25 µM) was 82.0881 and 78.7498 and 78.7099, the “Supplementary Figure 2 dose-response value, starvation-induced non-replicating H37Rv cells” value ([2]; Conc. 25 µM) was 68.1135 and 65.0382 and 65.6038 and the “Supplementary Figure 2 dose-response value, starvation-induced non-replicating H37Rv cells” value ([2]; Conc. 50 µM) was 63.9387 and 63.1101 and 60.943. For the same compound, the “Supplementary Figure 2 dose-response value, starvation-induced non-replicating H37Rv cells” value ([2]; Conc. 100 µM) was 61.9787 and 54.8959 and 58.7122, the AUC0-inf/Dose (in vivo; [3]) was 180 h nM/(nmol kg-1) and 169 h nM/(nmol kg-1) and 158 h nM/(nmol kg-1) and the AUC0-t/Dose (in vivo; [3]) was 177 h nM/(nmol kg-1) and 161 h nM/(nmol kg-1) and 154 h nM/(nmol kg-1). For the same compound, the CL (in vivo; [3]) was 98.5 mL/min/kg and 106 mL/min/kg, the “CL PL QH” value (in vivo; [3]) was 103.0% and 109.0% and 117.0% and the Cmax/Dose (in vivo; [3]) was 488 nM/(nmol kg-1) and 361 nM/(nmol kg-1) and 396 nM/(nmol kg-1). For the same compound, the MRT (in vivo; [3]) was 54 min and 42 min, the “Plasma concentration 0.1 h” value (in vivo; [3]) was 518 nM and 384 nM and 421 nM and the “Plasma concentration 0.5 h” value (in vivo; [3]) was 85.1 nM and 88.1 nM and 71.5 nM. For the same compound, the “Plasma concentration 1 h” value (in vivo; [3]) was 33.6 nM and 37.9 nM and 32.6 nM, the “Plasma concentration 2 h” value (in vivo; [3]) was 12.3 nM and 14.2 nM and 13.4 nM and the “Plasma concentration 4 h” value (in vivo; [3]) was 2.7 nM and 4.8 nM and 2.9 nM. For the same compound, the Vss (in vivo; [3]) was 5.6 L/kg and 4.6 L/kg, the t1/2 (in vivo; [3]) was 78 min and the AUC0-inf/Dose (in vivo; iv bolus, mice, Mean) was 169 h nM/(nmol kg-1). For the same compound, the AUC0-t/Dose (in vivo; iv bolus, mice, Mean) was 164 h nM/(nmol kg-1), the “CL PL QH” value (in vivo; iv bolus, mice, Mean) was 110.0% and the Cmax/Dose (in vivo; iv bolus, mice, Mean) was 415 nM/(nmol kg-1). For the same compound, the “Plasma concentration 0.1 h” value (in vivo; iv bolus, mice, Mean) was 441 nM, the “Plasma concentration 0.5 h” value (in vivo; iv bolus, mice, Mean) was 81.6 nM and the “Plasma concentration 1 h” value (in vivo; iv bolus, mice, Mean) was 34.7 nM. For the same compound, the “Plasma concentration 2 h” value (in vivo; iv bolus, mice, Mean) was 13.3 nM, the “Plasma concentration 4 h” value (in vivo; iv bolus, mice, Mean) was 3.5 nM and the clearance (in vivo; [4]) was 92.3 mL/min/kg. It also gave a half-life (in vivo; [4]) of 54 min, an MRT (in vivo; male, BALB/cAnNCrl, mouse, in vivo, iv, 1.062 umol/kg, iv bolus, individual animals 1-3, read-out: MRT) of 36 min and a Vd (in vivo; male, BALB/cAnNCrl, mouse, in vivo, iv, 1.062 umol/kg, iv bolus, individual animals 1-3, read-out: Vss) of 3.5 L/kg. For the same compound, the clearance (in vivo; [5]) was 98.8 mL/min/kg, the half-life (in vivo; [5]) was 60 min and the MRT (in vivo; male, BALB/cAnNCrl, mouse, in vivo, iv, 1.062 umol/kg, iv bolus, mice, Mean, read-out: MRT) was 48 min. It also gave a Vd (in vivo; male, BALB/cAnNCrl, mouse, in vivo, iv, 1.062 umol/kg, iv bolus, mice, Mean, read-out: Vss) of 4.5 L/kg, a Vd (in vivo; male, BALB/cAnNCrl, mouse, in vivo, iv, 1 mg/kg, mice, 1 mg kg-1 iv bolus, read-out: VSS) of 4.54 L/kg and a clearance (in vivo; male, BALB/cAnNCrl, mouse, in vivo, iv, 1 mg/kg, plasma clearance, mice, 1 mg kg-1 iv bolus) of 98.8 mL/min/kg. For the same compound, the half-life (in vivo; male, BALB/cAnNCrl, mouse, in vivo, iv, 1 mg/kg, plasma, mice, 1 mg kg-1 iv bolus) was 61.8 min, the AUC (in vivo; mouse, in vivo, iv) was 164 h nM/(nmol kg-1) and the Cmax (in vivo; mouse, in vivo, iv) was 415 nM/(nmol kg-1). For the same compound, the “Plasma concentration 6 h” value (in vivo; mouse, in vivo, iv) was “BLOQ” and the “Plasma concentration 24 h” value (in vivo; mouse, in vivo, iv) was “BLOQ”.
